Laboratory results from ChEMBL document CHEMBL1201862, “PubChem BioAssay data set” (2004).
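Values below derive from 48-hour exposures of cells grown in 96-well plates, with endpoints linearly interpolated between the two concentrations bracketing the appropriate inhibition level. GI50 = concentration required for 50% inhibition of growth.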 Activity calls are given as the source filed them. Rule as the data show it: active = GI50 up to about 1.1 µM and inactive = higher.

Legend:
Test in all cases: NCI-60 cell line screen, 48 h
A549 = test system: A549
HCT-15 = test system: HCT-15
MCF7 = test system: MCF7
MDA-MB-435 = test system: MDA-MB-435
Malme-3M = test system: Malme-3M
NCI-H226 = test system: NCI-H226
NCI-H460 = test system: NCI-H460
NCI/ADR-RES = test system: NCI/ADR-RES
SK-MEL-28 = test system: SK-MEL-28
SK-OV-3 = test system: SK-OV-3
SN12C = test system: SN12C
SW-620 = test system: SW-620
TK-10 = test system: TK-10
UACC-257 = test system: UACC-257
A498 = test system: A498
CAKI-1 = test system: CAKI-1
DU-145 = test system: DU-145
HCT-116 = test system: HCT-116
HOP-92 = test system: HOP-92

| Compound | GI50 (A549) | GI50 (HCT-15) [µM] | GI50 (MCF7) | GI50 (MDA-MB-435) | GI50 (Malme-3M) | GI50 (NCI-H226) | GI50 (NCI-H460) | GI50 (NCI/ADR-RES) | GI50 (SK-MEL-28) | GI50 (SK-OV-3) | GI50 (SN12C) | GI50 (SW-620) | GI50 (TK-10) | GI50 (UACC-257) | GI50 (A498) | GI50 (CAKI-1) | GI50 (DU-145) | GI50 (HCT-116) | GI50 (HOP-92) |
| --- | --- | --- | --- | --- | --- | --- | --- | --- | --- | --- | --- | --- | --- | --- | --- | --- | --- | --- | --- |
| CCc1nc(Cl)c(Cl)c(Cl)n1 | > 100 µM (inactive) | > 100 | > 100 µM (inactive) | > 100 µM (inactive) | > 100 µM (inactive) | > 100 µM (inactive) | > 100 µM (inactive) | > 100 µM (inactive) | > 100 µM (inactive) | > 100 µM (inactive) | > 100 µM (inactive) | > 100 µM (inactive) | > 100 µM (inactive) | > 100 µM (inactive) | – | – | – | – | – |
| COc1cc(/C=C2/Oc3c(OC)cccc3C2=O)ccc1O | > 100 µM (inactive) | 24.3 | > 100 µM (inactive) | 52.5 µM (inactive) | – | 76 µM (inactive) | 32.4 µM (inactive) | > 10 µM (inactive) | > 100 µM (inactive) | 92 µM (inactive) | > 100 µM (inactive) | > 100 µM (inactive) | > 100 µM (inactive) | > 100 µM (inactive) | 94 µM (inactive) | 36.5 µM (inactive) | 49.1 µM (inactive) | 76.9 µM (inactive) | > 100 µM (inactive) |
| CNC(=O)N1N[C@H](c2ccccc2)[C@@H]1c1ccccc1.OB(O)O | 28.4 µM (inactive) | 24.3 | 24 µM (inactive) | – | 19.7 µM (inactive) | 16.7 µM (inactive) | 21.8 µM (inactive) | 15.4 µM (inactive) | 18 µM (inactive) | 34 µM (inactive) | 25.5 µM (inactive) | 28.4 µM (inactive) | 40.4 µM (inactive) | 35.9 µM (inactive) | 20.6 µM (inactive) | 32.7 µM (inactive) | – | 17.9 µM (inactive) | 26.3 µM (inactive) |
| CN1CCN2c3ccccc3CC(C#N)(C#N)C2C1 (configuration not stated) | > 100 µM (inactive) | > 100 | – | – | > 100 µM (inactive) | > 100 µM (inactive) | > 100 µM (inactive) | – | > 100 µM (inactive) | > 100 µM (inactive) | > 100 µM (inactive) | > 100 µM (inactive) | > 100 µM (inactive) | > 100 µM (inactive) | > 100 µM (inactive) | > 100 µM (inactive) | – | > 100 µM (inactive) | > 100 µM (inactive) |
| Cc1c(Cl)cccc1NC(=O)c1cccc([N+](=O)[O-])c1O | 11.4 µM (inactive) | 14.4 | – | – | 6.25 µM (inactive) | 15.5 µM (inactive) | 8.81 µM (inactive) | – | 9.68 µM (inactive) | 25.6 µM (inactive) | 14 µM (inactive) | 28.2 µM (inactive) | 41.8 µM (inactive) | 8.51 µM (inactive) | 14.2 µM (inactive) | 9.59 µM (inactive) | – | 13.7 µM (inactive) | 2.37 µM (inactive) |
| Cc1ccc(S(=O)(=O)Oc2nc3ccccc3nc2OS(=O)(=O)c2ccc(C)cc2)cc1 | > 100 µM (inactive) | > 100 | > 100 µM (inactive) | > 100 µM (inactive) | 17 µM (inactive) | > 100 µM (inactive) | > 100 µM (inactive) | > 100 µM (inactive) | 28 µM (inactive) | > 100 µM (inactive) | > 100 µM (inactive) | 25.9 µM (inactive) | > 100 µM (inactive) | > 100 µM (inactive) | > 100 µM (inactive) | 8.39 µM (inactive) | > 100 µM (inactive) | > 100 µM (inactive) | – |
| O=C(/C=C\c1ccc(Cl)c(Cl)c1)c1ccc(Cl)cc1Cl | 22.6 µM (inactive) | 4.15 | – | – | 17.9 µM (inactive) | 9.51 µM (inactive) | 23.3 µM (inactive) | – | > 10 µM (inactive) | 19.9 µM (inactive) | 24.9 µM (inactive) | 2.69 µM (inactive) | > 10 µM (inactive) | 19.9 µM (inactive) | > 10 µM (inactive) | 27.3 µM (inactive) | – | 9.14 µM (inactive) | > 10 µM (inactive) |
